Data reported in article PMC2656767 (The Journal of organic chemistry, 2009).

Assays:
[1] = tested on: wild type (ATCC 90027) C. albicans; experiment: Modified disk diffusion assay, wild type C. albicans; assay type: cell-based, Candida albicans; details: wild type strain, loads of 1-5 μg/disk
[2] = tested on: amphotericin B resistant C. albicans (ATCC 200955); experiment: Modified disk diffusion assay, amphotericin B resistant C. albicans; assay type: cell-based; details: amphotericin B-resistant strain, loads of 1-5 μg/disk

Substance: Theopapuamide A [compound 7]
- antifungal activity (in words) [1]: activity
- antifungal activity (in words) [2]: activity
